In patent US4761478A, “3-deazaguanine sulfonic acid salts” (Warner-Lambert Company, priority 1986, dated 1988):
“Also recorded” adds a separate entry of the source. Structures can show the parent of a compound that is named as a salt. Where two headings read alike, the source gives them in different places.

Assays:
[1] = Solubility of trimetrexate acid addition salts in water (Table II); assay type: physicochemical; settings: decreasing order of solubility
[2] = Water solubility of 3-deazaguanine and its acid addition salts (Table I); assay type: physicochemical; settings: for water solubility (in words) / ml Water Needed to Dissolve: 3-deazaguanine salts; for ml Water Needed to Dissolve: 250 mg 3-deazaguanine plus one equivalent weight of the acid, water added until complete solution; for Solubility: 3-deazaguanine salts in water
Protocol: The common acids employed for the formulation of acid addition salts of pharmaceutical bases are listed in J. Pharm. […] The solubility values presented in Table I were determined as follows: 3-deazaguanine (250 mg) was suspended in a small volume of water and one equivalent weight of the acid was added with stirring. Stirring was continued and small volumes of water were added intermittently until complet solution was obtained.

[3] = Aqueous solution of 3-deazaguanine methanesulfonate salt remaining clear and free of precipitate; assay type: physicochemical; settings: in water
Protocol: To a slurry of 24.5 g of 6-amino-1,5-dihydro-4H-imidazo-[4,5-c]pyridin-4-one (3-deazaguanine) in 250 ml of methyl alcohol was added a solution of 17.0 g of methanesulfonic acid in 50 ml of methyl alcohol. The mixture was stirred at room temperature for about 10 minutes, filtered, and the filter cake washed with methyl alcohol to give, after drying, 35.5 g (88%) of 3-deazaguanine methanesulfonate salt, mp 273°-275° C. This material produced a solution in water at a concentration of 41 mg/ml which remained clear and free of any precipitate for more than three days.

[4] = trimetrexate acid addition salts in water; data from U.S. Pat. No. 4,376,858; cited from earlier work
[5] = Relative solubility of m-AMSA acid addition salts (Table III); assay type: physicochemical
[6] = Chemical stability of the sodium salt of 3-deazaguanine in aqueous solution; assay type: physicochemical; settings: aqueous solution of sodium salt of 3-deazaguanine

| Structure (SMILES) | ml Water Needed to Dissolve [2] [mL] | Solubility [4] [µg/mL] | Solubility [2] [µg/mL] | other results |
| --- | --- | --- | --- | --- |
| CS(=O)(=O)O.Nc1cc2nc[nH]c2c(=O)[nH]1 [Methanesulfonic, 3-deazaguanine methanesulfonate salt] | 5 | 9830 |  | order of solubility among the trimetrexate salts tested [1]: sixth; water solubility (in words) ([2]; water): solubility advantage; Solubility ([2]; water, read-out: Solubility): 50000 µg/mL; time the solution remained clear and free of any precipitate ([3]; 41 mg/ml): more than three; Solubility ([3]; read-out: concentration of solution produced in water): 41000 µg/mL; solubility compared with other m-AMSA salts (in words) [5]: one of the least soluble salts |
| Nc1cc2nc[nH]c2c(=O)[nH]1 [Maleic] | 150 to 160 |  | 1600 to 1700 |  |
| COc1cc(NCc2ccc3nc(N)nc(N)c3c2C)cc(OC)c1OC [p-Toluenesulfonic] |  | 1730 |  |  |
| COc1cc(NCc2ccc3nc(N)nc(N)c3c2C)cc(OC)c1OC [2-Naphthalenesulfonic] |  | 150 |  |  |
| COc1cc(NCc2ccc3nc(N)nc(N)c3c2C)cc(OC)c1OC [Ethoxyacetic] |  | 19500 |  |  |
| Nc1cc2nc[nH]c2c(=O)[nH]1 [H3 PO4] | 120 to 130 |  | 1900 to 2100 |  |
| Nc1cc2nc[nH]c2c(=O)[nH]1 [sodium salt] |  |  |  | chemical stability in aqueous solution (in words) [6]: tend to begin to degrade within a few hours of formulation; also recorded: chemically unstable |
| Nc1cc2nc[nH]c2c(=O)[nH]1 [H2 SO4] | 250 to 300 |  | 800 to 1000 | water solubility (in words) ([2]; water, listed as sulfate): poorly soluble; water solubility (in words) ([2]; water, listed as sulfate salt): lower solubility; solubility relative to the corresponding free base ([2]; sulfate salt of 3-deazaguanine vs free base): about one-half |
| Nc1cc2nc[nH]c2c(=O)[nH]1 [HCl] | 65 to 75 |  | 3300 to 3800 |  |
